*1 amine or outer side, *2 acyl side, *3 side chain or, on linkers, in order; H or OH if unused. Where a SMILES comes first, the peptide text is derived from it. Bridges are numbered along the chain shown (N, C = ends). X1 = O=C(CCC[*:2])[*:1] Some results are limits rather than exact numbers.

The nature of data set [1]: Stability of the compound in simulated intestinal fluid at pH 6.8 assessed as half life measured up to 24 hrs by RP-HPLC-UV analysis. In kind it is ADME.
Data set [2] in a line: Stability of the compound in simulated gastric fluid at pH 1.2 assessed as half life measured up to 24 hrs by RP-HPLC-UV analysis. In kind it is ADME.

For the molecule `CC[C@H](C)[C@@H]1NC(=O)[C@@H]2CCCN2C(=O)[C@@H]2CCCN2C(=O)[C@H]([C@@H](C)CC)NC(=O)[C@H](CO)NC(=O)[C@H](CCCCN)NC(=O)[C@H]([C@@H](C)O)NC(=O)[C@@H]2CSSC[C@H](NC1=O)C(=O)N[C@@H](Cc1ccc(OC)cc1)C(=O)N[C@@H](Cc1ccccc1)C(=O)N[C@@H](CCC(N)=O)C(=O)N[C@@H](CC(N)=O)C(=O)N[C@@H](CCCNC(=N)N)C(=O)N1CCC[C@H]1C(=O)N[C@@H](CCCNC(=N)N)C(=O)N2` (cyclo(CTKSIPPICY(Me)FQNRPR); disulfide 1-9), the half-life in data set [1] is 0.05 h. `CC[C@H](C)[C@@H]1NC(=O)[C@H](Cc2ccc(O)cc2)NC(=O)[C@@H](N)CSSC[C@@H](C(=O)N2CCC[C@H]2C(=O)N[C@H](CC(=O)NCC(N)=O)CC(C)C)NC(=O)[C@H](CC(N)=O)NC(=O)[C@H](CCC(N)=O)NC1=O`: the half-life in data set [1] is 3.6 h. Take `CC[C@H](C)[C@@H]1NC(=O)[C@H](CCC(=O)O)NC(=O)[C@@H]2CCCN2C(=O)[C@H](Cc2c[nH]cn2)NC(=O)[C@H](CC(=O)O)NC(=O)[C@H](Cc2ccc(O)cc2)NC(=O)[C@H](CC(N)=O)NC(=O)[C@@H]2CSSC[C@@H]3NC(=O)CNC(=O)CNC(=O)CNC(=O)[C@H](C)NC(=O)[C@H](C)NC(=O)CNC(=O)CNC(=O)[C@@H](CSSC[C@H](NC3=O)C(=O)N[C@@H](CO)C(=O)N[C@@H](CC(=O)O)C(=O)N3CCC[C@H]3C(=O)N[C@@H](CCCNC(=N)N)C(=O)N2)NC1=O`: the results for the half-life in data set [2] and in data set [1] were > 24 h and 1.5 h, respectively. Regarding `CC[C@H](C)[C@@H]1NC(=O)[C@H](Cc2ccc(O)cc2)NC(=O)[C@@H]2CSSC[C@H](NC(=O)[C@H](CC(N)=O)NC(=O)[C@H](CCC(N)=O)NC1=O)C(=O)N1CCC[C@H]1C(=O)N[C@@H](CC(C)C)C(=O)NCC(=O)N2`, the half-life in data set [1] is 0.117 h. On to `CC(C)C[C@H](NC(=O)[C@@H]1CSSC[C@@H]2NC(=O)[C@H](CC(C)C)NC(=O)[C@H](CCC(=O)O)NC(=O)[C@@H](NC(=O)[C@H](CCC(=O)O)NC(=O)[C@H](CC(=O)O)NC(=O)[C@@H](N)CC(N)=O)CSSC[C@H](NC(=O)[C@H](C)NC(=O)[C@H](C(C)C)NC(=O)[C@H](CC(N)=O)NC(=O)[C@H](C(C)C)NC2=O)C(=O)N[C@@H]([C@@H](C)O)C(=O)NCC(=O)N1)C(=O)O` [PLECANATIDE], for which, in data set [2], the half-life is > 24 h. For `CC[C@H](C)[C@@H]1NC(=O)[C@H](Cc2ccc(O)cc2)NC(=O)[C@@H]2CSSC[C@@H]3NC(=O)[C@H]([C@@H](C)CC)NC(=O)[C@@H]4CCCN4C(=O)[C@H](Cc4c[nH]c5ccccc45)NC(=O)[C@H](CO)NC(=O)[C@@H]4CSSC[C@H](NC(=O)[C@H]([C@@H](C)O)NC(=O)[C@H](CCC(=O)O)NC(=O)CNC(=O)[C@H](CSSC[C@H](NC(=O)[C@H](CC(N)=O)NC(=O)[C@H]([C@@H](C)O)NC1=O)C(=O)N[C@@H]([C@@H](C)O)C(=O)N4)NC(=O)[C@H](C(C)C)NC(=O)[C@@H]1CCCN1C(=O)[C@H](CC(C)C)NC(=O)CNC(=O)[C@H](CC(N)=O)NC(=O)[C@H](CCCNC(=N)N)NC(=O)[C@H](CCCCN)NC3=O)C(=O)N[C@@H]([C@@H](C)O)C(=O)N[C@@H](CC(C)C)C(=O)NCC(=O)N[C@@H]([C@@H](C)O)C(=O)N2`, the half-life in data set [1] is > 24 h. As to `C[C@@H](O)[C@@H]1NC(=O)[C@H](CCCCN)NC(=O)[C@@H](Cc2c[nH]c3ccccc23)NC(=O)[C@H](Cc2ccccc2)NC(=O)[C@@H](NC(=O)[C@H](N)Cc2ccccc2)CSSC[C@@H](C(=O)N[C@H](CO)[C@@H](C)O)NC1=O` [OCTREOTIDE], the half-life in data set [2] was > 24 h. Regarding `CC(C)C[C@@H]1NC(=O)CNC(=O)[C@H](CC(N)=O)NC(=O)[C@H](CCCNC(=N)N)NC(=O)[C@H]([C@@H](C)O)NC(=O)[C@@H]2CSSC[C@@H]3NC(=O)[C@H]([C@@H](C)O)NC(=O)CNC(=O)CNC(=O)[C@H](C(C)C)NC(=O)[C@@H]4CSSC[C@H](NC(=O)[C@H]([C@@H](C)O)NC(=O)[C@H](CSSC[C@H](NC(=O)[C@H](C(C)C)NC(=O)[C@@H]5CCCN5C1=O)C(=O)NCC(=O)N[C@@H](CCC(=O)O)C(=O)N[C@@H]([C@@H](C)O)C(=O)N4)NC(=O)CNC(=O)[C@@H]1CCCN1C(=O)[C@H]([C@@H](C)O)NC(=O)[C@H](CC(N)=O)NC3=O)C(=O)N[C@@H](CO)C(=O)N[C@@H](Cc1c[nH]c3ccccc13)C(=O)N1CCC[C@H]1C(=O)N[C@@H](C(C)C)C(=O)N2`, the half-life in data set [2] and in data set [1] was > 24 h throughout. As for `CC[C@H](C)[C@@H]1NC(=O)[C@H](Cc2ccc(OC)cc2)NC(=O)CCCSC[C@@H](C(=O)N2CCC[C@H]2C(=O)N[C@@H](CC(C)C)C(=O)NCC(N)=O)NC(=O)[C@H](CC(N)=O)NC(=O)[C@H](CCC(N)=O)NC1=O` [CARBETOCIN] (Y(Me)IQNCPLG-NH2; linker N-5 via X1), the half-life in data set [2] is > 24 h. Same read-out and setting: the result for `CC[C@H](C)[C@@H]1NC(=O)[C@H](Cc2ccc(O)cc2)NC(=O)[C@@H](N)CSSC[C@@H](C(=O)N2CCC[C@H]2C(=O)N[C@@H](CC(C)C)C(=O)NCC(N)=O)NC(=O)[C@H](CC(N)=O)NC(=O)[C@H](CCC(N)=O)NC1=O` [OXYTOCIN] reads > 24 h. For `CC[C@H](C)[C@@H]1NC(=O)[C@H](Cc2ccc(O)cc2)NC(=O)[C@@H]2CSSC[C@@H]3NC(=O)[C@H](C(C)C)NC(=O)[C@@H]4CCCN4C(=O)[C@H](Cc4c[nH]c5ccccc45)NC(=O)[C@H](CO)NC(=O)[C@@H]4CSSC[C@H](NC(=O)[C@H]([C@@H](C)O)NC(=O)[C@H](CCC(=O)O)NC(=O)CNC(=O)[C@H](CSSC[C@H](NC(=O)[C@H](CC(N)=O)NC(=O)[C@H](CCC(N)=O)NC1=O)C(=O)N[C@@H]([C@@H](C)O)C(=O)N4)NC(=O)[C@H](C(C)C)NC(=O)[C@@H]1CCCN1C(=O)[C@H](CC(C)C)NC(=O)CNC(=O)[C@H](CC(N)=O)NC(=O)[C@H](CCCNC(=N)N)NC(=O)[C@H]([C@@H](C)O)NC3=O)C(=O)N[C@@H](C(C)C)C(=O)NCC(=O)NCC(=O)N[C@@H]([C@@H](C)O)C(=O)N2`, in data set [1], the half-life was > 24 h. Consider `[H][C@@]12CCCN1C(=O)[C@@H]1CSSC[C@H](NC(=O)CNC(=O)[C@H](C)NC(=O)CNC(=O)[C@H](C)NC(=O)CNC(=O)[C@H](C)NC(=O)CNC(=O)[C@H](CC(C)C)NC2=O)C(=O)N[C@@H](Cc2ccc(O)cc2)C(=O)N[C@@H]([C@@H](C)CC)C(=O)N[C@@H](CCC(N)=O)C(=O)N[C@@H](CC(N)=O)C(=O)N1` (HELM PEPTIDE1{A.G.A.G.A.G.C.Y.I.Q.N.C.P.L.G}$PEPTIDE1,PEPTIDE1,7:R3-12:R3|PEPTIDE1,PEPTIDE1,1:R1-15:R2$$$V2.0), for which the half-life in data set [1] was < 0.05 h. In the case of `C[C@@H]1NC(=O)[C@@H]2CCCN2C(=O)[C@H](CC(N)=O)NC(=O)[C@@H]2CSSC[C@H](N)C(=O)N[C@H]3CSSC[C@H](NC1=O)C(=O)N[C@@H]([C@@H](C)O)C(=O)NCC(=O)N[C@H](C(=O)N[C@@H](Cc1ccc(O)cc1)C(=O)O)CSSC[C@H](NC(=O)[C@H](Cc1ccc(O)cc1)NC(=O)[C@H](CCC(=O)O)NC3=O)C(=O)N2` [LINACLOTIDE] (HELM PEPTIDE1{C.C.E.Y.C.C.N.P.A.C.T.G.C.Y}$PEPTIDE1,PEPTIDE1,1:R3-6:R3|PEPTIDE1,PEPTIDE1,2:R3-10:R3|PEPTIDE1,PEPTIDE1,5:R3-13:R3$$$V2.0), the half-life in data set [2] was > 24 h. `CC[C@H](C)[C@@H]1NC(=O)[C@@H]2CSSC[C@H](NC(=O)[C@H](CCCNC(=N)N)NC(=O)[C@@H]3CSSC[C@H](NC1=O)C(=O)N[C@@H]([C@@H](C)O)C(=O)N[C@@H](CCCNC(=N)N)C(=O)NCC(=O)N[C@@H](Cc1ccccc1)C(=O)N3)C(=O)N[C@@H](CC(C)C)C(=O)N[C@H]1CSSC[C@H](NC(=O)[C@H](C(C)C)NC(=O)CNC(=O)[C@H](CCCNC(=N)N)NC(=O)[C@H](CCCNC(=N)N)NC1=O)C(=O)N[C@@H](CCCNC(=N)N)C(=O)N2` (HELM PEPTIDE1{G.F.C.R.C.L.C.R.R.G.V.C.R.C.I.C.T.R}$PEPTIDE1,PEPTIDE1,3:R3-16:R3|PEPTIDE1,PEPTIDE1,5:R3-14:R3|PEPTIDE1,PEPTIDE1,7:R3-12:R3|PEPTIDE1,PEPTIDE1,1:R1-18:R2$$$V2.0): the half-life in data set [2] is 2.2 h.

On to `CC[C@@H](C)[C@H]1NC(=O)[C@@H](Cc2ccc(O)cc2)NC(=O)[C@H](N)CSSC[C@H](C(=O)N2CCC[C@@H]2C(=O)N[C@H](CC(C)C)C(=O)NCC(N)=O)NC(=O)[C@@H](CC(N)=O)NC(=O)[C@@H](CCC(N)=O)NC1=O`, for which, in data set [1], the half-life is > 24 h. For `CC[C@H](C)[C@@H]1NC(=O)[C@H](Cc2ccc(O)cc2)NC(=O)[C@@H](N)CSSC[C@@H](C(=O)N2CCC[C@H]2C(=O)N[C@@H](CC(C)C)C(=O)N(C)CC(N)=O)NC(=O)[C@H](CC(N)=O)NC(=O)[C@H](CCC(N)=O)NC1=O`, the half-life in data set [1] was 2.9 h. Same read-out and setting: the result for `CC[C@H](C)[C@@H]1NC(=O)[C@H](Cc2ccc(O)cc2)NC(=O)[C@@H](N)CSSC[C@@H](C(=O)N2CCC[C@H]2C(=O)N[C@@](C)(CC(C)C)C(=O)NCC(N)=O)NC(=O)[C@H](CC(N)=O)NC(=O)[C@H](CCC(N)=O)NC1=O` reads 4.4 h. On to `NC(=O)CC[C@@H]1NC(=O)[C@H](Cc2ccccc2)NC(=O)[C@H](Cc2ccc(O)cc2)NC(=O)[C@@H](N)CSSC[C@@H](C(=O)N2CCC[C@H]2C(=O)N[C@@H](CCCN=C(N)N)C(=O)NCC(N)=O)NC(=O)[C@H](CC(N)=O)NC1=O` [VASOPRESSIN], for which the half-life in data set [2] is > 24 h. On to `CC[C@H](C)[C@@H]1NC(=O)[C@H](Cc2ccc(O)cc2)NC(=O)[C@@H]2CSSC[C@@H]3NC(=O)[C@H](C(C)C)NC(=O)[C@@H]4CCCN4C(=O)[C@H](Cc4c[nH]c5ccccc45)NC(=O)[C@H](CO)NC(=O)[C@@H]4CSSC[C@H](NC(=O)[C@H]([C@@H](C)O)NC(=O)[C@H](CCC(=O)O)NC(=O)CNC(=O)[C@H](CSSC[C@H](NC(=O)[C@H](CC(N)=O)NC(=O)[C@H]([C@@H](C)O)NC1=O)C(=O)N[C@@H]([C@@H](C)O)C(=O)N4)NC(=O)[C@H](C(C)C)NC(=O)[C@@H]1CCCN1C(=O)[C@H](CC(C)C)NC(=O)CNC(=O)[C@H](CC(N)=O)NC(=O)[C@H](CCCNC(=N)N)NC(=O)[C@H]([C@@H](C)O)NC3=O)C(=O)N[C@@H](C(C)C)C(=O)NCC(=O)NCC(=O)N[C@@H]([C@@H](C)O)C(=O)N2`, for which, in data set [1], the half-life is > 24 h.

Broadly, the half-life is the time needed for the level to fall by half in the phase considered.

The values above are taken from ChEMBL document CHEMBL5137009, “On the Utility of Chemical Strategies to Improve Peptide Gut Stability” (J Med Chem, 2022).
